Publication PMC10673624 (Current research in chemical biology, 2023)
Blank lines part the entries; values can stand above or below the compound they belong to.

Tests used:
[1] = tested on: pSR and CLK2 localization, U118-MG and MDA-MB-435 cells; experiment: Immunofluorescence of pSR and CLK2 localization; type: cell-based; conditions: 500 nM, over the course of 60 min
CLK = conditions: ref SGC chemical probe website (thesgc.org/chemical-probes/MU1210, /T3-CLK); cited from earlier work
CLK1 [2] = target: T1, CLK1 (Homo sapiens, UniProt P49759); experiment: NanoBRET in-cell target engagement; type: cell-based
CLK4 [3] = experiment: Luceome KinaseSeeker binding; conditions: CLK4, 1 μM
CLK1 [4] = target: T1, CLK1; experiment: Luceome KinaseSeeker binding; conditions: read-out: KinaseSeeker activity remaining
CLK2 [5] = target: T2, CLK2 (Homo sapiens, UniProt P49760); experiment: Luceome KinaseSeeker binding; conditions: read-out: KinaseSeeker activity remaining
CLK2 [6] = target: T2, CLK2; experiment: Eurofins enzymatic assay; type: biochemical
CLK4 [7] = target: T3, CLK4 (Homo sapiens, UniProt Q9HAZ1); experiment: Eurofins enzymatic assay; type: biochemical
MDA-MB-435 = experiment: Crystal violet cell proliferation; type: cell-based; conditions: MDA-MB-435, denoted concentrations, 7 days (Fig. 6a)
CLK4 [8] = target: T3, CLK4; experiment: NanoBRET in-cell target engagement; type: cell-based
CLK3 = CLK3 (Homo sapiens, UniProt P49761); experiment: Eurofins enzymatic assay; type: biochemical
[9] = tested on: 403 wildtype (WT) human as well as several mutant and nonhuman kinases; type: binding; conditions: no kinase bound below this PoC
CLK2 [10] = target: T2, CLK2; experiment: NanoBRET in-cell target engagement; type: cell-based
U118-MG = experiment: Crystal violet cell proliferation; type: cell-based; conditions: denoted concentrations, 7 days (Fig. 6a)
CLK1 [11] = target: T1, CLK1; experiment: Eurofins enzymatic assay; type: biochemical
[12] = tested on: CLK2 or pSR distribution, BT-20; experiment: Immunofluorescence of pSR and CLK2 localization; type: cell-based
BT-20 = experiment: Crystal violet cell proliferation; type: cell-based; conditions: BT-20, denoted concentrations, 7 days (Fig. 6a)
HIPK1 [13] = target: T4, HIPK1 (Homo sapiens, UniProt Q86Z02); experiment: Eurofins enzymatic assay; type: biochemical
STK16 [14] = target: T5, STK16 (Homo sapiens, UniProt O75716); experiment: NanoBRET in-cell target engagement; type: cell-based
STK16 [15] = target: T5, STK16; experiment: Eurofins enzymatic assay; type: biochemical
HIPK2 [16] = target: T6, HIPK2 (Homo sapiens, UniProt Q9H2X6); experiment: NanoBRET in-cell target engagement; type: cell-based
[17] = tested on: SR phosphorylation (pSR), U118-MG cells; experiment: Western blot of phosphorylated SR proteins; type: cell-based
ERK8 (MAPK15) = ERK8 (MAPK15) (Homo sapiens, UniProt Q8TD08); experiment: KINOMEscan scanMAX binding
[18] = tested on: 100 different cancer cell lines; experiment: ProQinase CL100 cancer cell line panel; type: cell-based; conditions: of 100 cell lines tested, CellTiter-Glo
HIPK1 [19] = target: T4, HIPK1; experiment: NanoBRET in-cell target engagement; type: cell-based
HIPK2 [20] = target: T6, HIPK2; experiment: Eurofins enzymatic assay; type: biochemical

T2 sequence (P49760 whole entry): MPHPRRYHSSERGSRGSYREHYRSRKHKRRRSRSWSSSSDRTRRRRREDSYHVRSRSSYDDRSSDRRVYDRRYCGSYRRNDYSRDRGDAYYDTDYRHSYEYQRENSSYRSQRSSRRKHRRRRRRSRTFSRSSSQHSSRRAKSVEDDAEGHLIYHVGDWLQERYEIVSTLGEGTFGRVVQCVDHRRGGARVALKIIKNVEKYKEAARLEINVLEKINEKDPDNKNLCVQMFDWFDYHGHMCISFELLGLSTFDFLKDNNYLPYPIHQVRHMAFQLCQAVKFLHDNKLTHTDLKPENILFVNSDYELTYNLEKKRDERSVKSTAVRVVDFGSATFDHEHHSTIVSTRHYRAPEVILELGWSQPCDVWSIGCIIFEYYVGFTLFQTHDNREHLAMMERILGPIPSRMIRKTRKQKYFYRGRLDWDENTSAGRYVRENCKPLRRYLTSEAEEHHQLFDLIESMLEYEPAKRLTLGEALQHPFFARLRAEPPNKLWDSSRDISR
T1 sequence (P49759 whole entry): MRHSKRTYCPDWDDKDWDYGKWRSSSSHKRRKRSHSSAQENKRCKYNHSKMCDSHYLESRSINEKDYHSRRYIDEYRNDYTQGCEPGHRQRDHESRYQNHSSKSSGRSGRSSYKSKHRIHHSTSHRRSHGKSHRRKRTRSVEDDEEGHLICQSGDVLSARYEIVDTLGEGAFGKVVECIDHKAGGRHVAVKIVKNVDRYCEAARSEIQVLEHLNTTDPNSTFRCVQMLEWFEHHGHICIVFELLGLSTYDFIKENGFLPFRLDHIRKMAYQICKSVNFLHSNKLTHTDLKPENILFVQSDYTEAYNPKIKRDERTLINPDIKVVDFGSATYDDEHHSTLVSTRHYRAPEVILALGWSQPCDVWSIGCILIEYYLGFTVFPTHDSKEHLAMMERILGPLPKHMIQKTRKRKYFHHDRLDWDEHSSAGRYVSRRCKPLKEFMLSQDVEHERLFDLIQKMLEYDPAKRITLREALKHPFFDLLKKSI
T3 sequence (Q9HAZ1 whole entry): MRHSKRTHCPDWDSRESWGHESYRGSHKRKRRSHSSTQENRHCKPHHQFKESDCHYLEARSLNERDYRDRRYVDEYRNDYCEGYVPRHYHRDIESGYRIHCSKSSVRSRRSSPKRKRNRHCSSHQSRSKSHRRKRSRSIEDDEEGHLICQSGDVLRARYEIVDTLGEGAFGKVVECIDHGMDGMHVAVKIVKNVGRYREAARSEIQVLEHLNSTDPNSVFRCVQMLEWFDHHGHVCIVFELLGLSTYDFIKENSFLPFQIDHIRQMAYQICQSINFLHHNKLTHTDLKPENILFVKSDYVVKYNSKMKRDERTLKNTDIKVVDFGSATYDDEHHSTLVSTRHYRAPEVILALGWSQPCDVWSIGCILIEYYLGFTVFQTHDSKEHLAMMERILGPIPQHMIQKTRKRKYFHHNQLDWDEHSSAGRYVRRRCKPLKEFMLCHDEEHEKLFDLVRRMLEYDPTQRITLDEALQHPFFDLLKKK
T5 sequence (O75716 whole entry): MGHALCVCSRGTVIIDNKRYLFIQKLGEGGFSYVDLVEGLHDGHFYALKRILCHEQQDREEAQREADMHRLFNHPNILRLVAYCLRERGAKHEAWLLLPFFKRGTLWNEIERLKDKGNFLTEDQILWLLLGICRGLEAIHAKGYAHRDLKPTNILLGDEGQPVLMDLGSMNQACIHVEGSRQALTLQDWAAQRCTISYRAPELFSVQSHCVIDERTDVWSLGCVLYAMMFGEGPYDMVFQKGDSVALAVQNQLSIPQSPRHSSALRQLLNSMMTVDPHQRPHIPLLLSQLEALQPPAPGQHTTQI
T4 sequence (Q86Z02 whole entry): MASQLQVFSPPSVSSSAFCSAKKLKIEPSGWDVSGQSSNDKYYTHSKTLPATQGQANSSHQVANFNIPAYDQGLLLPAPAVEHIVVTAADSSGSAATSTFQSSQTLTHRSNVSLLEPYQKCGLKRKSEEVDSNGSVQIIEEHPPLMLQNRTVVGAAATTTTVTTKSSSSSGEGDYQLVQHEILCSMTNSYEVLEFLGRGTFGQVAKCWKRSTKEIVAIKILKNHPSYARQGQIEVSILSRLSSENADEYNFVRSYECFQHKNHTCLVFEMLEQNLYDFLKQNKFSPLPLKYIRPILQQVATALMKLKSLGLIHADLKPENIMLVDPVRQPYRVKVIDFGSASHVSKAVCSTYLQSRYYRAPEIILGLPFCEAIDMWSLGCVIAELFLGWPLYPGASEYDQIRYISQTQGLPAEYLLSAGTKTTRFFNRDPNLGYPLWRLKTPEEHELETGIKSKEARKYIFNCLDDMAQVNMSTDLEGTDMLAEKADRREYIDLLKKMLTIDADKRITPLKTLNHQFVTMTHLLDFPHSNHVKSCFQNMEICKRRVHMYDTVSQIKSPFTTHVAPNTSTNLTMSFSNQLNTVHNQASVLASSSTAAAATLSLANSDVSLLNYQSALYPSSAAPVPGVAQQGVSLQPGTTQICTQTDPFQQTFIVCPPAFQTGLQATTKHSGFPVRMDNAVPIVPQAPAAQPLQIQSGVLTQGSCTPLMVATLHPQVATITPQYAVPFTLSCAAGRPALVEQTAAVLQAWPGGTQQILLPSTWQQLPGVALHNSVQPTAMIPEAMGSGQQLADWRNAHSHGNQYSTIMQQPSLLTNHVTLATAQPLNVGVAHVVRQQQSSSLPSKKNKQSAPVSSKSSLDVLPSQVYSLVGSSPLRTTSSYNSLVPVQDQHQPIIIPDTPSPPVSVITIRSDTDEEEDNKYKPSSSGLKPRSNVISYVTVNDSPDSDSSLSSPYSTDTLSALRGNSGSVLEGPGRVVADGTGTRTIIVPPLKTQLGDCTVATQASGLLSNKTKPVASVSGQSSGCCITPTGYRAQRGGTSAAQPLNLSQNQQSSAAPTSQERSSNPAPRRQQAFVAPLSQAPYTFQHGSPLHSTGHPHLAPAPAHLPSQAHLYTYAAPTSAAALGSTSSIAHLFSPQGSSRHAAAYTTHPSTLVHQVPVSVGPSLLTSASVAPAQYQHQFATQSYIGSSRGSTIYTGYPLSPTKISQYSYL
Chain of ERK8 (MAPK15) (Q8TD08 whole entry): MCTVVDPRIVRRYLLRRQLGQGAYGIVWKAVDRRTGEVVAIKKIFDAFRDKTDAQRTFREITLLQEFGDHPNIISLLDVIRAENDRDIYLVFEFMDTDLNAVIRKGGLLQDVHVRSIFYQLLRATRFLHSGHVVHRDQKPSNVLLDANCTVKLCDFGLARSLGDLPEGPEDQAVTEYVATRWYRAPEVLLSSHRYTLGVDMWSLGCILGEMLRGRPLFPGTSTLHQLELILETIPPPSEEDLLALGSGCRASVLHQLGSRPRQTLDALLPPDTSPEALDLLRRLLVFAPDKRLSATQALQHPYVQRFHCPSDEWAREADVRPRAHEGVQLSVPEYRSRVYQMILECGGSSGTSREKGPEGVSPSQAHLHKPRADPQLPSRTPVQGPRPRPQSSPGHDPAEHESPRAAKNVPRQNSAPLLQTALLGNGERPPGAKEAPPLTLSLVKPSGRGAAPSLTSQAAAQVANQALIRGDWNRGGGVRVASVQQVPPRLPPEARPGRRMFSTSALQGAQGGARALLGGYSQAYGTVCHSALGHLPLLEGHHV
T6 sequence (Q9H2X6 whole entry): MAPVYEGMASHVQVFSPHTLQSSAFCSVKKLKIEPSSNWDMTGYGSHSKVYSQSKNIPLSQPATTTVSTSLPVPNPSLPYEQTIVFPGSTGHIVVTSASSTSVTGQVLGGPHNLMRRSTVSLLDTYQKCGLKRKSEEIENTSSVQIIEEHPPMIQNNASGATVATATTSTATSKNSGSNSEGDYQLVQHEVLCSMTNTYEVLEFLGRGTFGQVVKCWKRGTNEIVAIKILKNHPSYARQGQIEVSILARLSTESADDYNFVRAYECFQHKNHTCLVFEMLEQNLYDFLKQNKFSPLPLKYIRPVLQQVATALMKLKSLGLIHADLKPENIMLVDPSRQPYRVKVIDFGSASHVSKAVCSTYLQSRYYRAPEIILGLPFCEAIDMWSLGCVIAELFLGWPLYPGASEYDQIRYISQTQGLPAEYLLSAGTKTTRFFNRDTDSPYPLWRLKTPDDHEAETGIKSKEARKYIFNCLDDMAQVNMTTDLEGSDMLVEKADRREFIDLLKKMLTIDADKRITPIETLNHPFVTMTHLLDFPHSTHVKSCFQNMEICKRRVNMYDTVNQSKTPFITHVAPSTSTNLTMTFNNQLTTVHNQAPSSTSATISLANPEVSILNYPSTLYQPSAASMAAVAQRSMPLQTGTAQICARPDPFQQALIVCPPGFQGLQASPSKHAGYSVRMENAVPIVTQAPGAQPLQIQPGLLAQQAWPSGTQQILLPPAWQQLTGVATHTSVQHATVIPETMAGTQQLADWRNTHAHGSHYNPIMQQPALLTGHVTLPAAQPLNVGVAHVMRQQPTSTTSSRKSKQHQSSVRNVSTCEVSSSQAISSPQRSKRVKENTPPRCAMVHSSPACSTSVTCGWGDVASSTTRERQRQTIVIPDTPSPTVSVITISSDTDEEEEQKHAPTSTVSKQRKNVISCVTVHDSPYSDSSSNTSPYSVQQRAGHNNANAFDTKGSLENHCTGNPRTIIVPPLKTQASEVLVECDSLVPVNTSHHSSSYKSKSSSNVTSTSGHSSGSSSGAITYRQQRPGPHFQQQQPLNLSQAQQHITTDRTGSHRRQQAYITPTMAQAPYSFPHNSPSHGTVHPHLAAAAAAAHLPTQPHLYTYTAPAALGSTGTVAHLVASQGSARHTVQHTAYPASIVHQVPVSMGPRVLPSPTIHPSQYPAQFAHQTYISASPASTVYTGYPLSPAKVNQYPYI

SMILES: Cn1cc(-c2ccc3occ(-c4cccc(-c5ccncc5)c4)c3n2)cn1 [Compound 1, reference compound]
Effect on pSR and CLK2 localization [1]: did not show any effect on pSR or CLK2 localization
Activity in the CLK nanoBRET assays (CLK): active

NanoBRET activity (in words) (CLK1 [2]; CLK1): inactive
KinaseSeeker activity remaining (CLK4 [3]): 100%
remaining activity at 1 µM (CLK1 [4]): 100%
remaining activity at 1 µM (CLK2 [5]): 100%
Enzymatic inhibition (in words) (CLK2 [6]): no inhibition
Enzymatic inhibition (in words) (CLK4 [7]): no inhibition
NanoBRET activity (in words) (CLK4 [8]): inactive
Enzymatic inhibition (in words) (CLK3): no inhibition
PoC of any kinase in the KINOMEscan panel [9]: ≥ 45
NanoBRET activity (in words) (CLK2 [10]): inactive
Enzymatic inhibition (in words) (CLK1 [11]): no inhibition
SMILES: CCOc1ccc2c(-c3cc(C)nc(Nc4cc(OC)cc(C(F)(F)F)c4)n3)cnn2n1 [SGC-CLK-1N, 4-(6-ethoxypyrazolo [1,5-b]pyridazin-3-yl)-N-(3-methoxy-5-(trifluoromethyl)phenyl)-6-methylpyrimidin-2-amine]
Effect on cell growth (crystal violet) (MDA-MB-435): little effect
Effect on cell growth (crystal violet) (U118-MG): little effect
Effect on CLK2 or pSR distribution [12]: did not observe a difference in CLK2 or pSR distribution

IC50 (CLK1 [2]; Cellular IC50 (NanoBRET), CLK1, HEK293, Tracer K5): 154 ± 50 nM
IC50 (HIPK1 [13]): 50 nM
NanoBRET binding (in words) (STK16 [14]): only partial inhibition
IC50 (STK16 [15]): 49 nM
IC50 (HIPK2 [16]): > 10000 nM
Cell lines with IC50 for inhibiting proliferation <250 nM [18]: 27/100
IC50 (HIPK1 [19]): > 10000 nM
IC50 (HIPK2 [20]): 42 nM
SMILES: COc1cc(Nc2nccc(-c3cnn4nc(OC)ccc34)n2)cc(C(F)(F)F)c1 [SGC-CLK-1, N-(3-methoxy-5-(trifluoromethyl)phenyl)-4-(6-methoxypyrazolo[1,5-b]pyridazin-3-yl) pyrimidin-2-amine]
Effect on cell growth (crystal violet) (BT-20): no growth change
Effect on cell growth (crystal violet) (MDA-MB-435): dose-dependent decrease in the growth
Effect on cell growth (crystal violet) (U118-MG): dose-dependent decrease in the growth
Effect on pSR and CLK2 localization [1]: significant changes in the cellular distribution of both pSRs and CLK2
Effect on CLK2 or pSR distribution [12]: did not observe a difference in CLK2 or pSR distribution
Change in SR phosphorylation (pSR) ([17]; 1 μM, highest treatment condition): did not detect significant pSR changes
Change in SR phosphorylation (pSR) ([17]; 5 μM, 30 min post treatment, U118-MG): decrease in SR phosphorylation
% Control (1 μM) (ERK8 (MAPK15); ERK8 (MAPK15), 1 μM): 21%
remaining binding at 1 µM (ERK8 (MAPK15); read-out: % Control (1 μM), ERK8 (MAPK15), 1 μM): < 35%
